Data taken from PMC7419507, “In vitro Cas9-assisted editing of modular polyketide synthase genes to produce desired natural product derivatives” (Nature Communications, 2020).
Values joined by “and” are separate entries in the source; they are usually repeats but may differ in a detail not shown here. Identical values can stand only once.

Columns and labels:
Assay type in all cases: cell-based
FKBP12 and mTOR = biological target: T1, FKBP12 and mTOR (Homo sapiens, UniProt P42345+P62942); test: Fluoppi analysis: induction of FKBP12-mTOR complex formation in transfected HeLa cells; conditions: raw data, one replicate per line
T1 construct: host or cells: HeLa cells
T1 sequence (P42345 2025-2114 limits assumed): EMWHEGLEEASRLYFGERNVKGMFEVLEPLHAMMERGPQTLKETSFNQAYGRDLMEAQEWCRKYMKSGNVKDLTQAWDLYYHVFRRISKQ
T1 sequence (P62942 whole entry): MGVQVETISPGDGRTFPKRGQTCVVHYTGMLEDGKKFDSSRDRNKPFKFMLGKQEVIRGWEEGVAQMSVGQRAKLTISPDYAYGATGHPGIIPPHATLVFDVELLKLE
Procedure, shortened: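 Complex formation read as fluorescent foci: foci intensity over total per-cell intensity, imaged (×20, 9 fields/well) after fixation and Hoechst stain, giving EC50. Cells: HeLa transiently expressing hAG-mTOR and Ash-FKBP12, exposed to compound concentrations for 1 h at 37 °C.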

[1] = test system: malignant pleural mesothelioma MESO-1 cells; test: Cytotoxicity assay (CellTiter-Glo, 72 h), MESO-1; conditions: raw replicate data
Procedure, shortened: (§1)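 Cells were seeded at 1000 cells/well and allowed 4 h at 37 °C, 5% CO2 before 2-fold compound dilutions in DMSO were added (0.5% final DMSO). After 72 h exposure, viability was read by CellTiter-Glo luminescence.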

[2] = Cytotoxicity assay (CellTiter-Glo, 72 h), MESO-1; conditions: human
Procedure, shortened: as §1

For `CO[C@H]1C[C@@H]2CC[C@@H](C)[C@@](O)(O2)C(=O)C(=O)N2CCCC[C@H]2C(=O)O[C@H]([C@H](C)C[C@@H]2CC[C@@H](O)[C@H](OC)C2)CC(=O)[C@H](C)/C=C(\C)[C@@H](O)[C@@H](OC)C(=O)[C@H](C)C[C@H](C)/C=C/C=C/C=C/1C` [Compound 1, rapamycin, reference compound], the Foci intensity (FKBP12 and mTOR; conc 0.0976562 uM) was 0.3612 and 0.3367 and 0.3536, the Foci intensity (FKBP12 and mTOR; conc 0.195312 uM) was 0.3566 and 0.4014 and 0.5261 and the Foci intensity (FKBP12 and mTOR; conc 0.390625 uM) was 0.3241 and 0.3575 and 0.3236. For the same compound, the Foci intensity (FKBP12 and mTOR; conc 0.78125 uM) was 0.4221 and 0.4622 and 0.4598, the Foci intensity (FKBP12 and mTOR; conc 1.5625 uM) was 0.3074 and 0.3503 and 0.4064 and the Foci intensity (FKBP12 and mTOR; conc 3.125 uM) was 0.4223 and 0.3831 and 0.4233. The Foci intensity (FKBP12 and mTOR; conc 6.25 uM) was 0.3328 and 0.3828 and 0.4116, the Foci intensity (FKBP12 and mTOR; conc 12.5 uM) was 0.2834 and 0.3194 and 0.3771 and the Foci intensity (FKBP12 and mTOR; conc 25 uM) was 0.3113 and 0.345 and 0.3681. For the same compound, the Foci intensity (FKBP12 and mTOR; conc 50 uM) was 0.2989 and 0.4553 and 0.5427, the “MESO1 viability (%)” value ([1]; conc 9.53674e-5 uM) was 78.2% and 78.1% and the “MESO1 viability (%)” value ([1]; conc 0.000190735 uM) was 77.7% and 77.2%. For the same compound, the “MESO1 viability (%)” value ([1]; conc 0.00038147 uM) was 77.9% and 86.0%, the “MESO1 viability (%)” value ([1]; conc 0.000762939 uM) was 70.2% and 70.0% and the “MESO1 viability (%)” value ([1]; conc 0.00152588 uM) was 112.8% and 111.2%. The “MESO1 viability (%)” value ([1]; conc 0.00305176 uM) was 76.5%, the “MESO1 viability (%)” value ([1]; conc 0.00610352 uM) was 75.4% and 78.7% and the “MESO1 viability (%)” value ([1]; conc 0.012207 uM) was 72.8% and 76.2%. The “MESO1 viability (%)” value ([1]; conc 0.0244141 uM) was 77.3%, the “MESO1 viability (%)” value ([1]; conc 0.0488281 uM) was 71.0% and 73.9% and the “MESO1 viability (%)” value ([1]; conc 0.0976562 uM) was 74.5% and 75.3%. For the same compound, the “MESO1 viability (%)” value ([1]; conc 0.195312 uM) was 73.7% and 71.3%, the “MESO1 viability (%)” value ([1]; conc 0.390625 uM) was 76.1% and the “MESO1 viability (%)” value ([1]; conc 0.78125 uM) was 74.4% and 74.1%. The “MESO1 viability (%)” value ([1]; conc 1.5625 uM) was 76.3%, the “MESO1 viability (%)” value ([1]; conc 3.125 uM) was 70.7% and 70.8% and the “MESO1 viability (%)” value ([1]; conc 6.25 uM) was 70.6% and 74.9%. For the same compound, the “MESO1 viability (%)” value ([1]; conc 12.5 uM) was 61.9% and 67.0%, the “MESO1 viability (%)” value ([1]; conc 25 uM) was 64.2% and 64.1% and the “MESO1 viability (%)” value ([1]; conc 50 uM) was 0.7% and 0.8%. The viability at 72 h ([2]; MESO-1 cells (malignant pleural mesothelioma), MESO-1 cells, 72 h, read-out: Plateau level of cell viability in the dose-response curve) was about 75%, the viability at 72 h, 9.53674e-05 uM ([2]; MESO-1 malignant pleural mesothelioma cells, conc 9.53674e-5 uM, raw replicate data, read-out: MESO1 viability (%)) was 79% and the viability at 72 h, 0.000190735 uM ([2]; MESO-1 malignant pleural mesothelioma cells, conc 0.000190735 uM, raw replicate data, read-out: MESO1 viability (%)) was 73.6%. The viability at 72 h, 0.00038147 uM ([2]; MESO-1 malignant pleural mesothelioma cells, conc 0.00038147 uM, raw replicate data, read-out: MESO1 viability (%)) was 83.4%, the viability at 72 h, 0.000762939 uM ([2]; MESO-1 malignant pleural mesothelioma cells, conc 0.000762939 uM, raw replicate data, read-out: MESO1 viability (%)) was 73.1% and the viability at 72 h, 0.00152588 uM ([2]; MESO-1 malignant pleural mesothelioma cells, conc 0.00152588 uM, raw replicate data, read-out: MESO1 viability (%)) was 116%. For the same compound, the viability at 72 h, 0.00305176 uM ([2]; MESO-1 malignant pleural mesothelioma cells, conc 0.00305176 uM, raw replicate data, read-out: MESO1 viability (%)) was 69.5%, the viability at 72 h, 0.00610352 uM ([2]; MESO-1 malignant pleural mesothelioma cells, conc 0.00610352 uM, raw replicate data, read-out: MESO1 viability (%)) was 78.3% and the viability at 72 h, 0.012207 uM ([2]; MESO-1 malignant pleural mesothelioma cells, conc 0.012207 uM, raw replicate data, read-out: MESO1 viability (%)) was 77.6%. It also gave a viability at 72 h, 0.0244141 uM ([2]; MESO-1 malignant pleural mesothelioma cells, conc 0.0244141 uM, raw replicate data, read-out: MESO1 viability (%)) of 75.2%, a viability at 72 h, 0.0488281 uM ([2]; MESO-1 malignant pleural mesothelioma cells, conc 0.0488281 uM, raw replicate data, read-out: MESO1 viability (%)) of 75% and a viability at 72 h, 0.0976562 uM ([2]; MESO-1 malignant pleural mesothelioma cells, conc 0.0976562 uM, raw replicate data, read-out: MESO1 viability (%)) of 77%. For the same compound, the viability at 72 h, 0.195312 uM ([2]; MESO-1 malignant pleural mesothelioma cells, conc 0.195312 uM, raw replicate data, read-out: MESO1 viability (%)) was 74.8%, the viability at 72 h, 0.390625 uM ([2]; MESO-1 malignant pleural mesothelioma cells, conc 0.390625 uM, raw replicate data, read-out: MESO1 viability (%)) was 75.6% and the viability at 72 h, 0.78125 uM ([2]; MESO-1 malignant pleural mesothelioma cells, conc 0.78125 uM, raw replicate data, read-out: MESO1 viability (%)) was 68.5%. The viability at 72 h, 1.5625 uM ([2]; MESO-1 malignant pleural mesothelioma cells, conc 1.5625 uM, raw replicate data, read-out: MESO1 viability (%)) was 76.4%, the viability at 72 h, 3.125 uM ([2]; MESO-1 malignant pleural mesothelioma cells, conc 3.125 uM, raw replicate data, read-out: MESO1 viability (%)) was 73.6% and the viability at 72 h, 6.25 uM ([2]; MESO-1 malignant pleural mesothelioma cells, conc 6.25 uM, raw replicate data, read-out: MESO1 viability (%)) was 74.3%. For the same compound, the viability at 72 h, 12.5 uM ([2]; MESO-1 malignant pleural mesothelioma cells, conc 12.5 uM, raw replicate data, read-out: MESO1 viability (%)) was 71.1%, the viability at 72 h, 25 uM ([2]; MESO-1 malignant pleural mesothelioma cells, conc 25 uM, raw replicate data, read-out: MESO1 viability (%)) was 63.9% and the viability at 72 h, 50 uM ([2]; MESO-1 malignant pleural mesothelioma cells, conc 50 uM, raw replicate data, read-out: MESO1 viability (%)) was 1.1%.
